Read-outs that look alike come from different tables or passages of the source.
How the values were obtained:
DAT [1] = target: T1, DAT (Rattus norvegicus, UniProt P23977); parameters: from tissue; host or cells: rat striatum (synaptosomes; homogenate); conditions: literature values [33], [34]; read-out: IC50, DA uptake under similar conditions; cited from earlier work
DAT [2] = target: T1, DAT; test: DA clearance in striatum of anesthetized rats by in vivo electrochemistry (high-speed chronoamperometry), Example 8; parameters: DA clearance in striatum and nucleus accumbens of urethane-anesthetized SD rats; from tissue; host or cells: striatum / nucleus accumbens of living anesthetized SD rats; species or system SD rats; conditions: for reduction in DA clearance: striatum, 1 minute after local application (lobinaline ~250 nl 1 mM; 403, 419 ~300 nl 250 μM), FIGS. 7-9; for increase in amplitude of DA signal: ~300 nl, 250 μM local application, FIGS. 8, 9
Method: DA clearance in striatum and nucleus accumbens of urethane-anesthetized SD rats was monitored by in vivo electrochemistry using high-speed chrono-amperometry [see 36]. After obtaining reproducible signals for locally applied DA, vehicle or drug was applied slowly over 10-30 sec, then 30-60 sec later the next application of DA was made, with subsequent DA applications at 5-minute intervals for 25-30 min. The DA kinetic data from each animal was analyzed using FAST software (Quanteon). […] These effects were no longer seen 3-5 minutes after lobinaline ejection. They are consistent with simple competitive inhibition of the DAT by lobinaline. […] However, the lobinaline N-oxides produce different effects. Representative data from lobinaline N-oxide, at the same concentration used for lobinaline (1 mM in 250 nl medium) are shown in FIG. 6. […] This is entirely consistent with effects on synaptosomal [3H]DA uptake in vitro above, and probably represents competitive inhibition. However, after exposure to the N-oxide there is a significant and prolonged (c20 min) increase in the first order rate of decay of the DA peak. […] This increase in rate constant induced by the N-oxide varied from 20× to 2× at increasing depths in the DV gradient.
The uptake rate of locally applied DA (˜100 nl; 200 μM) was measured before and 1 minute after local application of lobinaline (˜250 nl; 1 mM), 403 (˜300 nl; 250 μM) or 419 (˜300 nl; 250 μM) (FIGS. 7, 8, and 9).

DAT [3] = target: T1, DAT; test: dopamine uptake in striatum of isoflurane-anesthetized rats by in vivo electrochemistry, Examples 19-20; parameters: DA clearance in striatum and nucleus accumbens of urethane-anesthetized SD rats; from tissue; host or cells: striatum / nucleus accumbens of living anesthetized SD rats; species or system SD rats
Method: After obtaining reproducible signals for locally applied DA (50-75 nl, 200 μM) to produce a control DA peak height below 1 uM, vehicle or drug was locally applied slowly over 10-30 sec (˜500 nl 250 μM), then 60 sec later the next application of DA was performed, with subsequent DA applications at 5-min intervals for 25 min. […] The DA kinetic data from each animal were analyzed using FAST software (Quanteon, LLC, Nicholasville KY USA). […] These parameters were compared between pre- and post-drug application by one-way ANOVA with Tukey's post hoc analysis, with significance assigned at p<0.05.

aqueous solubility = format: physicochemical
Excerpt: Lobinaline (FIG. 1), was isolated from plant material and identified as the first-known binitrogenous plant alkaloid more than 80 years ago [27]. The applicants began to test its pharmacological activity after identifying Lobelia cardinalis as a novel source of nicAChR activity by high throughput screening in 2005 [26]. This plant species has no history of abuse, or traditional medicinal use of relevance to SUDs. […] These actions support lobinaline as a lead compound for the treatment of SUDs, particularly alcohol and nicotine use disorders. […] Lobinaline also appears to have appropriate pharmacokinetics and low toxicity. […] Conversely, this makes it a good test of the ability of target-directed evolution to generate novel inhibitors of the DAT in mutant plant cells.
Lobinaline and the “mono”-N-oxide were separated from plant and culture material by acid/base extraction, but the bi-N-oxide was derived from lobinaline using 3-chloroperbenzoic acid. All these compounds were separated by column chromatography with identity and purity confirmed by LC/MS.

nicAChRs [4] = test: displacement of [3H]epibatidine from rat brain homogenates; format: binding
DAT [5] = target: T1, DAT; test: [3H]DA uptake into rat striatal synaptosomes; format: biochemical; parameters: from tissue; host or cells: rat striatum (synaptosomes; homogenate); conditions: compound added 15 min before [3H]DA, 30 min at 37° C, read-out: IC50, inhibition of [3H]-DA uptake
Method: Lobinaline or the N-oxides were added 15 min before addition of [3H]DA. Synaptosomal uptake of [3H]DA was measured after 30 min incubation at 37° C.

[6] = Drinking in the dark model of binge drinking; format: in vivo, C57Bl/6J mice; conditions: 25 mg/Kg SC
Method: “Drinking in the dark” is a model for binge drinking in which C57Bl/6J mice are given limited access to alcohol during their dark cycle. With repeated daily access, mice will voluntarily drink to blood alcohol levels above 150 mg/dl. Lobeline reduces alcohol consumption in this model and it has predictive validity in that both naltrexone and acamprosate are active.
Methods: 8 male and 8 female mice were used for each of these studies and scoring was by an observer blind to treatment. Statistical analysis was by ANOVA followed by Bonnferoni posthoc with significance at p<0.05.

[7] = conditioned place preference (abuse potential); format: in vivo, SD rats
Excerpt: In conditioned place preference a chamber with distinct cues is repeatedly paired with administration of the test drug. A second chamber is repeatedly paired with a control injection. After conditioning, a test phase allows the rat to move between the chambers. If a drug is “rewarding” (i.e. has abuse potential), the rat spends more time in the drug-associated chamber. If it is aversive, the opposite result is obtained.
Methods: 6 male and 6 female SD rats were used for each drug and dose. Test drugs (5 or 25 mg/kg lobinaline, or 25 mg/Kg of lobinaline bi-N-oxide S.C) were paired with the “less preferred” compartment (standard for drugs that may be weakly reinforcing) for 20 minutes. On the next day, rats received a control (DMSO/saline) injection and were placed in the preferred chamber. After three repeated pairings (test and control), the subjects were given access to both chambers and the time spent in each compartment was recorded and scored by an observer blind to treatment. Analysis was by two way ANOVA with post hoc Bonnferoni with significance set at p<0.05. Results. Most animals spent most of the test period in the compartment originally preferred in the drug-free state, and there were no significant differences between drug and vehicle controls.

[8] = nicotine-induced locomotor activation (LMA), open field; format: in vivo, SD rats
Method: low S.C. doses of nicotine, repeated daily, cause progressive LMA related to mesolimbic DA release. This is reduced by lobeline and varenicline and therefore has predictive value as a screen for potential therapeutics in nicotine use disorder.
Methods: 2 groups of 6 adult SD rats of each sex were tested in an open-field apparatus for LMA. Each animal received a daily nicotine injection (0.5 mg/Kg SC) for 6 days with the last nicotine injection preceded (20 min) by 25 mg/Kg SC of lobinaline bi-N-oxide. Behavior was recorded and scored by an observer blind to treatment. Data was presented as line crosses/5 minutes with LMA over days 1-5 compared to LMA on day 6.

nicAChR = test: 45Ca2+ entry into SHSY5Y cells; format: cell-based; conditions: SHSY5Y cells; antagonist 1 uM
Excerpt: Effects of lobinaline and nicotine on ^45Ca^2+ entry into SHSY5Y cells: nicAChR function can be evaluated semi-quantitatively in this cell line by measuring ^45Ca^2+ entry in response to nicotine. […] The lobinaline N-oxides have not yet been tested in this system.

nicAChRs [9] = test: [3H]DA release from superfused rat striatal slices; format: cell-based; conditions: antagonist 10 μM
Method: Effects of lobinaline and nicotine on [3H]DA release from superfused rat striatal slices (ref 5): rat brain striatal slices were incubated with [3H]DA for 30 min at […] before transfer to superfusion chambers. […] To evaluate the role of nicAChRs, striatal slices preloaded with [3H]-DA were pretreated with the nicAChR antagonist mecamylamine (10 μM) prior to superfusion of lobinaline (100 μM). […] With the data above from SHSY5Y cells, this supports a partial agonist action of lobinaline at nicAChRs. The N-oxides have not yet been tested in this system. Lobinaline has weak agonist effects on nicAChRs, but also has as yet unquantified antagonist effects (i.e. it acts as a partial agonist at nicAChRs).

T1 sequence (P23977 whole entry): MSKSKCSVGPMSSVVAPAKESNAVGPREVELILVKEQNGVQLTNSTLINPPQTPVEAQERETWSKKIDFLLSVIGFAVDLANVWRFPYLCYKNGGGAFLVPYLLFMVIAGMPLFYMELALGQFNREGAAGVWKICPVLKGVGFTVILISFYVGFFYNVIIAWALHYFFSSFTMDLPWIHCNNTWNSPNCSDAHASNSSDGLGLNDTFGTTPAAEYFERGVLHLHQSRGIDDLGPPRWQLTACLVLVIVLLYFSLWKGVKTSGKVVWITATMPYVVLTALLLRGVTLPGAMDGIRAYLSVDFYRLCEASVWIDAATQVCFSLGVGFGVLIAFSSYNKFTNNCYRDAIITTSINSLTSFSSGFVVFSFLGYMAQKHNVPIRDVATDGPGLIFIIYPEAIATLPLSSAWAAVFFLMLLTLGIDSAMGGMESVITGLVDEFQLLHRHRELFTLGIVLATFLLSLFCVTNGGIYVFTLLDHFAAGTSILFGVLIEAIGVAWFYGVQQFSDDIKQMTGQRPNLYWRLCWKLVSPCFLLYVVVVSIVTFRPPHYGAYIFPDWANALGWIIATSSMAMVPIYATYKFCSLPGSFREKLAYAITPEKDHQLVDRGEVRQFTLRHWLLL

Question: Which IC50 (DAT [1]) does the source give for `CC(NC(C)(C)C)C(=O)c1cccc(Cl)c1` (centres unmarked) [bupropion] here?
Answer: The IC50 was 1900 nM.

Question: Which results are given for `C[N+]1([O-])CCCC2C(c3ccccc3)C(C3=NCCCC3)C(c3ccccc3)CC21` (centres unmarked) [lobinaline N-oxide, lobinaline mono-N-oxide]?
Answer: increase in amplitude of the DA signal (DAT [2]; 1 mM in 250 nl medium, FIG. 6): twofold increase; duration of increase in first order rate of decay of the DA peak (DAT [2]; after exposure, 1 mM in 250 nl): ~20 min; increase in first order rate constant of DA decay (DAT [2]; dorso-ventral position −5.5 mm, remains after 16 minutes): about three-fold; reduction in DA clearance (DAT [2]): 60%; increase in amplitude of DA signal (DAT [2]): doubling; DA clearance parameters, dorsal striatum, early changes (DAT [3]; DV-3.5 to DV-5.5 mm, FIG. 12): increase in T80 and clearance rate that reflects the increase in peak amplitude, with no change in k−1; DA peak amplitude, dorsal striatum (DAT [3]; DV-3.5 to DV-5.5 mm, up to 26 minutes after micro-injection, FIG. 12): marked and prolonged (but variable) increase; DA peak amplitude, ventral striatum (DAT [3]; DV-6 to −7.5 mm (shell of nucleus accumbens), up to 26 minutes, FIG. 13): marked and consistent increase; DA clearance parameters, ventral striatum (DAT [3]; DV-6 to −7.5 mm, FIG. 13): increase in clearance rate and k−1 at 21 and 26 minutes; DA clearance parameters, dorsal striatum, later (DAT [3]; after 11-26 minutes, FIG. 12): increase in both uptake rate and k−1 with little change in T80; duration of increase in DA amplitude (DAT [3]; over four local applications of dopamine): at least 20 minutes; effect on DA clearance parameters (DAT [3]; relative to % control): reduced immediately after microinjection but increased later; effect on amplitude of the DA signal (DAT [3]; single local application ~500 nl 250 μM, striatum, FIGS. 10, 11): increase in amplitude; aqueous solubility (aqueous solubility): much more soluble than lobinaline; character of [3H]epibatidine displacement (nicAChRs [4]): more weakly with a multiphasic displacement curve; IC50 (DAT [5]): 517 nM

Question: With `C[N+]1([O-])CCCC2C(c3ccccc3)C(C3=[N+]([O-])CCCC3)C(c3ccccc3)CC21` (centres unmarked) [lobinaline bi-N-oxide] as the molecule, how does the “effects on the DAT in vivo compared with mono-N-oxide” value (DAT [2]; rat, in vivo) read?
Answer: Its value is “less potent than the “natural” mono-N-oxide”.

Question: And the “reduction in DA clearance” value (DAT [2])?
Answer: The value was 40%.

Question: And the “increase in amplitude of DA signal” value (DAT [2])?
Answer: The value was 4 fold.

Question: And the “food or water intake” value [6]?
Answer: Its value is “no reduction in food or water intake”.

Question: What about the overt toxicity [6] of the same molecule?
Answer: Its overt toxicity is “neither compound produced overt toxicity”.

Question: What about the Ki (nicAChRs [4]) of the same molecule?
Answer: Its Ki is 6500 nM.

Question: What about the “character of [3H]epibatidine displacement” value (nicAChRs [4]) of the same molecule?
Answer: The value was “monophasically displaced”.

Question: What about the overt toxicity ([7]; after 3 repeated drug administrations) of the same molecule?
Answer: The overt toxicity was “no signs of overt toxicity”.

Question: What about the “sedation or locomotor activation” value ([7]; lobinaline 5 or 25 mg/kg, bi-N-oxide 25 mg/Kg S.C) of the same molecule?
Answer: The value was “no sedation or locomotor activation”.

Question: What about the “conditioned place preference or aversion” value ([7]; lobinaline 5 or 25 mg/kg, bi-N-oxide 25 mg/Kg S.C, three pairings) of the same molecule?
Answer: The value was “neither lobinaline nor the lobinaline bi-N-oxide produced conditioned place preference or aversion”.

Question: What about the IC50 (DAT [5]) of the same molecule?
Answer: Its IC50 is 1190 nM.

Question: What about the “effect on nicotine-induced LMA sensitization trend” value ([8]; 25 mg/Kg SC 20 min before nicotine 0.5 mg/Kg SC on day 6) of the same molecule?
Answer: Its value is “reversed in both sexes”.

Question: And the “individual animals showing the same trend” value ([8]; day 6 vs days 1-5, repeated measures)?
Answer: Its value is 10/12.

Question: For `CNC1(C)C2CCC(C2)C1(C)C` (centres unmarked) [mecamylamine], which “inhibition of lobinaline-fraction-evoked 45Ca2+ entry by antagonist” value (nicAChR) is on record?
Answer: The value was “completely inhibited”.

Question: And the “effect of antagonist pretreatment on lobinaline (100 μM)-evoked fractional [3H] release” value (nicAChRs [9])?
Answer: The value was “significantly attenuated”.

Reference: patent US12539298B2, “Lobinaline N-oxides as positive allosteric modulators of the dopamine transporter with potential value in the treatment of substance abuse disorders” (University of Kentucky Research Foundation, priority 2019, dated 2026)
